Results taken from patent US7915255B2, “Metabolism-modulating agents and uses therefor” (Verva Pharmaceuticals Pty Ltd, priority 2004, dated 2011).
pIC50: −log10 of the molar value. “Also recorded” adds a separate entry of the source. Blank lines part the entries; values can stand above or below the compound they belong to.

Assays:
[1] = system: IMPDH; test: Insulin-stimulated 32P phosphorylation of IMPDH; format: cell-based
Procedure: (§1) 3T3-L1 cells, CHO.IR cells (46) and fibroblast cells derived from vimentin null (Vim^−/−) mice were cultured as described (28, 47). Human preadipocytes were cultured and differentiated as described (47). Transfections were performed using Lipofectamine. Cells were serum starved for at least 2 h before treatment with insulin (1 μM, 15 min) or pre-treatment with wortmannin (100 nM, 25 min), LY294002 (50 μM, 10 min) or C2-ceramide (100 μM, 2 h) followed by insulin or oleate. To induce lipid body accumulation cells were cultured in regular growth medium supplemented with 200 μM oleate complexed to fatty acid free bovine serum albumin (BSA) in a 6:1 molar ratio. Mycophenolic acid (MPA) was dissolved in methanol to give a stock solution of 30 mM. This was further diluted in methanol, prior to direct addition to the culture media such that the final concentration of methanol was always 0.1%. Guanosine was dissolved in DMSO to give a stock solution of 100 mM. This was further diluted in DMSO, prior to direct addition to the culture media such that the final concentration of DMSO was always 0.33%. Media was refreshed, with addition of fresh MPA, guanosine, or vehicle, every 3 days as appropriate. […] Samples were subjected to SDS-PAGE and analysed by immunoblotting and autoradiography. […]

[2] = system: Akt; test: Akt phosphorylation (immunoblotting); format: cell-based; details: C2-ceramide; data not shown
Procedure: (§2) 3T3-L1 cells, CHO.IR cells (46) and fibroblast cells derived from vimentin null (Vim^−/−) mice were cultured as described (28, 47). Human preadipocytes were cultured and differentiated as described (47). Transfections were performed using Lipofectamine. Cells were serum starved for at least 2 h before treatment with insulin (1 μM, 15 min) or pre-treatment with wortmannin (100 nM, 25 min), LY294002 (50 μM, 10 min) or C2-ceramide (100 μM, 2 h) followed by insulin or oleate. To induce lipid body accumulation cells were cultured in regular growth medium supplemented with 200 μM oleate complexed to fatty acid free bovine serum albumin (BSA) in a 6:1 molar ratio. Mycophenolic acid (MPA) was dissolved in methanol to give a stock solution of 30 mM. This was further diluted in methanol, prior to direct addition to the culture media such that the final concentration of methanol was always 0.1%. Guanosine was dissolved in DMSO to give a stock solution of 100 mM. […]
For western blotting, following appropriate treatment, cells were harvested in lysis buffer (50 mM HEPES (pH 7.4), 150 mM NaCl, 1% Triton-X-100, 1 mM Na3VO4, 30 mM NaF, 10 mM Na4P2O7, 10 mM EDTA, 1 μg/ml aprotinin, 1 μg/ml leupeptin, 2 mM PMSF) and clarified by centrifugation (2,000×g for 10 min). Protein concentration was determined using the BCA assay. […]

[3] = system: CHO.IR cells; test: Oleate-induced lipid accumulation, Oil red-O staining; format: cell-based, Chinese hamster; details: LY294002 + 200 μM oleate, 5 h
Procedure: as §1, with “(Vim^-/-)” for “(Vim^−/−)”, “Quantification of lipids was determined by measuring Oil red-O staining at […]. Protein concentration was determined in parallel and values” for “Samples”, “normalised” for “subjected”, “protein.” for “SDS-PAGE and analysed by immunoblotting and autoradiography.”

[4] = system: 3T3-L1 cells; test: Western blotting of adipogenic transcription factors and IMPDH in differentiating 3T3-L1 cells; format: cell-based, murine
Procedure: (§3) 3T3-L1 cells, CHO.IR cells (46) and fibroblast cells derived from vimentin null (Vim^−/−) mice were cultured as described (28, 47). Human preadipocytes were cultured and differentiated as described (47). Transfections were performed using Lipofectamine. Cells were serum starved for at least 2 h before treatment with insulin (1 μM, 15 min) or pre-treatment with wortmannin (100 nM, 25 min), LY294002 (50 μM, 10 min) or C2-ceramide (100 μM, 2 h) followed by insulin or oleate. To induce lipid body accumulation cells were cultured in regular growth medium supplemented with 200 μM oleate complexed to fatty acid free bovine serum albumin (BSA) in a 6:1 molar ratio. Mycophenolic acid (MPA) was dissolved in methanol to give a stock solution of 30 mM. This was further diluted in methanol, prior to direct addition to the culture media such that the final concentration of methanol was always 0.1%. Guanosine was dissolved in DMSO to give a stock solution of 100 mM. This was further diluted in DMSO, prior to direct addition to the culture media such that the final concentration of DMSO was always 0.33%. Media was refreshed, with addition of fresh MPA, guanosine, or vehicle, every 3 days as appropriate.
For western blotting, following appropriate treatment, cells were harvested in lysis buffer (50 mM HEPES (pH 7.4), 150 mM NaCl, 1% Triton-X-100, 1 mM Na3VO4, 30 mM NaF, 10 mM Na4P2O7, 10 mM EDTA, 1 μg/ml aprotinin, 1 μg/ml leupeptin, 2 mM PMSF) and clarified by centrifugation (2,000×g for 10 min). Protein concentration was determined using the BCA assay. Equal protein was subjected to SDS-PAGE and immunoblotting and visualized by autoradiography (using enhanced chemiluminescence) or fluorescent analysis using the L1-Cor Odyssey system.

[5] = system: 3T3-L1 preadipocytes; test: Clonal expansion / cell number of differentiating 3T3-L1 cells (Syto60); format: cell-based, murine
Procedure: as §2
Essentially Syto60 staining was used to determine cell number following the manufacturers protocol. […] Finally, wells were aspirated and Syto60 staining was detected and quantitated using the LI-COR Odyssey Infrared Imaging System. DAPI was detected by fluorescence microscopy and was used to validate the Syto60 data in preliminary experiments.

[6] = system: 3T3-L1 preadipocytes; test: Adipogenesis of 3T3-L1 preadipocytes (lipid accumulation, G3PDH activity, protein); format: cell-based, murine
Procedure: as §3, with “appropriate. Cells were washed in ice cold PBS (pH 7.4) and harvested in 1 ml of ice-cold 50 mM Tris (pH 7.5) containing 1 mM EDTA and 500 μM DTT. Cells were disrupted by sonication and centrifuged at 12000 g for 15 min at 4° C. Before assay, 5 μl of 100 mM DTT was added. The supernatant was then assayed for G3PDH activity in a final concentration of 100 mM triethanolamine-HCl (pH 7.5), 2.5 mM EDTA, 0.24 mM NADH, 50 μM DTT and 0.4 mM dihydroxyacetone phosphate (DAP). The reaction was initiated by addition of DAP and the rate of change in A340 was measured using a FLUOstar Optimem spectrophotometer (BMG labtech, Victoria Australia). Each of three culture wells was assayed in duplicate with a reagent blank containing distilled water instead of substrate (DAP). An aliquot of the supernatant was assayed to determine protein concentration.” for “appropriate.”

[7] = system: primary human preadipocytes; test: Adipogenesis of primary human preadipocytes (lipid accumulation, G3PDH activity); format: cell-based
Procedure: as §3, with “appropriate. Cells were washed in ice cold PBS (pH 7.4) and harvested in 1 ml of ice-cold 50 mM Tris (pH 7.5) containing 1 mM EDTA and 500 μM DTT. Cells were disrupted by sonication and centrifuged at 12000 g for 15 min at 4° C. Before assay, 5 μl of 100 mM DTT was added. The supernatant was then assayed for G3PDH activity in a final concentration of 100 mM triethanolamine-HCl (pH 7.5), 2.5 mM EDTA, 0.24 mM NADH, 50 μM DTT and 0.4 mM dihydroxyacetone phosphate (DAP). The reaction was initiated by addition of DAP and the rate of change in A340 was measured using a FLUOstar Optimem spectrophotometer (BMG labtech, Victoria Australia). Each of three culture wells was assayed in duplicate with a reagent blank containing distilled water instead of substrate (DAP). An aliquot of the supernatant was assayed to determine protein concentration.” for “appropriate.”

Structure (SMILES): CCCCCCCCCCCCC/C=C/[C@@H](O)[C@H](CO)NC(C)=O [C2-ceramide]
insulin-stimulated IMPDH phosphorylation ([1]; C2-ceramide 100 μM, 2 h): without effect | reduction of insulin-stimulated Akt phosphorylation [2]: 70%

role of the inhibited kinase (atypical PKCs; mTOR and p70S6 kinase) in insulin-stimulated IMPDH phosphorylation ([1]; Gö6983 1 μM, rapamycin 22 nM, data not shown): eliminated
Structure (SMILES): COc1ccc2c(c1)c(C1=C(c3c[nH]c4ccccc34)C(=O)NC1=O)cn2CCCN(C)C [Gö6983]

Structure (SMILES): O=c1cc(N2CCOCC2)oc2c(-c3ccccc3)cccc12 [LY294002]
reduction of oleate-induced lipid accumulation (Oil red-O) [3]: approximately 50%

Structure (SMILES): COc1c(C)c2c(c(O)c1C/C=C(\C)CCC(=O)O)C(=O)OC2 [MPA, mycophenolic acid]
IMPDH expression ([4]; 1 μM MPA): promotes increased IMPDH expression; also recorded: promoted an increase in IMPDH expression | expression of adipogenic transcription factors CEBPα, CEBPβ, PPARγ ([4]; 1 μM MPA, harvested at day 3): blocks expression of CEBPα, but not CEBPβ or PPARγ; also recorded: induction of expression of the adipogenic transcription factors CEBPβ and PPARγ, but not CEBPα, was apparent | proliferation/clonal expansion ([5]; 1 μM MPA, first 3 days of differentiation): blocks proliferation/clonal expansion; also recorded: blocked clonal expansion | lipid accumulation (determined morphologically) ([6]; 1 μM MPA): blocks lipid accumulation; also recorded: reduced lipid accumulation; also recorded: inhibited lipid accumulation | G3PDH activity ([6]; 1 μM MPA, day 8): decreased G3PDH activity | differentiation ([6]; MPA for 6 days (0-6)): block differentiation completely | lipid accumulation and G3PDH activity ([6]; MPA for the first 3 days (0-3) or the second 3 days (3-6) of differentiation): reduced lipid accumulation and G3PDH activity | pIC50 ([6]; Mus musculus, 3T3-L1, increasing MPA for the first 6 days of differentiation, harvested day 8, read-out: IC50 for inhibition of differentiation (G3PDH activity and protein levels)): 6.70 to 7.00 | induction of G3PDH activity ([7]; 1 μM MPA): reduced | lipid accumulation ([7]; 1 μM MPA): reduced lipid accumulation and expression of G3PDH activity

Structure (SMILES): Nc1nc2c(ncn2[C@@H]2O[C@H](CO)[C@@H](O)[C@H]2O)c(=O)[nH]1 [guanosine]
MPA-induced increase in IMPDH expression ([4]; co-treatment with guanosine): Reversal of MPA induced increase in IMPDH expression; also recorded: prevented by co-treatment with guanosine | MPA inhibition of clonal expansion/proliferation ([5]; 60 μM guanosine co-treatment with MPA): Reversal of effects of MPA on clonal expansion; also recorded: reversed the inhibition of proliferation by MPA | lipid accumulation and G3PDH activity in MPA-treated cells ([6]; 60 μM guanosine + 1 μM MPA): reversed the effects of MPA treatment; also recorded: restored lipid accumulation | effects of MPA treatment on lipid accumulation and G3PDH activity ([6]; 300 μM guanosine + 1 μM MPA): still able to reverse the effects of MPA treatment to some extent | lipid accumulation and adipogenesis ([6]; 300 μM guanosine alone): reduced adipogenesis; also recorded: inhibited lipid accumulation and adipogenesis | induction of G3PDH activity / differentiation ([7]; 60 μM guanosine): reduced induction of G3PDH activity; also recorded: inhibited differentiation
